One assay addresses HypB (Escherichia coli, UniProt P0AAN3). Kind of assay: DRaCALA Kd determination, purified HypB. Particulars: 2 nM 32P-labeled ligand, read-out: apparent Kd, HypB. The class given is binding, E. coli.
The target of assay [1] is Era. The arrangement: method as in Table S1 (4). To be noted: ref Table S1 (4); read-out: Kd, S. aureus Era (converted); cited from earlier work.
The target of assay [2] is Era (Escherichia coli, UniProt P06616). Kind of assay: DRaCALA Kd determination, purified Era. Format: binding, E. coli. Particulars: 2 nM 32P-labeled ligand, read-out: apparent Kd, Era (converted).
Chain of Era (Escherichia coli, UniProt P06616) (P06616 whole entry): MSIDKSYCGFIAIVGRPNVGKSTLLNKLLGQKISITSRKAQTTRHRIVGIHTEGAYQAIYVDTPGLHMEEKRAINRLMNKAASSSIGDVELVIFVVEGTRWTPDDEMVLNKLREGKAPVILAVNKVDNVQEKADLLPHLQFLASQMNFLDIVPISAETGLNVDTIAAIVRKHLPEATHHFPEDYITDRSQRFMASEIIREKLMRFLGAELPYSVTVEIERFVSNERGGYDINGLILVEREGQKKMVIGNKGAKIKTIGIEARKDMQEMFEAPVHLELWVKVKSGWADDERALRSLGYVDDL
Experimental: (§1) For Kd measurements by DRaCALA, 2-fold serial dilutions from the highest possible concentrations of each purified protein were prepared in binding buffer B, and approximately 2 nM concentrations of α-^32P-labeled ppGpp, pppGpp, GTP, and GDP were added. The mixtures were incubated for 5 min at RT before spotting of 2 µl of the reaction mixtures onto nitrocellulose membranes. The fractions of bound ligand and the apparent Kd values were calculated as previously described ([37]).
The target of the next assay is RsgA. The arrangement: method as in Table S1 (4). Particulars: ref Table S1 (4); read-out: Kd, S. aureus RsgA (converted); cited from earlier work.
In another assay the target is Hpt (Escherichia coli, UniProt P0A9M2). Kind of assay: DRaCALA Kd determination, purified Hpt. The class given is binding, E. coli. Particulars: 2 nM 32P-labeled ligand, read-out: apparent Kd, Hpt.
Chain of Hpt (P0A9M2 whole entry): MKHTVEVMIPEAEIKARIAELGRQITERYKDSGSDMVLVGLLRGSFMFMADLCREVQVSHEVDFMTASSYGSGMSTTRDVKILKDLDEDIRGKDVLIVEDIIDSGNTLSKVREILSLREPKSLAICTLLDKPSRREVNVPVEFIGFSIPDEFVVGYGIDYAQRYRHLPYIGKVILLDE
For the next assay, the target named is Gmk. The arrangement: method as in Table S1 (4). To be noted: ref Table S1 (4); read-out: Kd, S. aureus Gmk; cited from earlier work.
Another assay deals with HflX. On the set-up: method as in Table S1 (4). Particulars: ref Table S1 (4); read-out: Kd, S. aureus HflX (converted); cited from earlier work.
Another assay deals with Der (Escherichia coli, UniProt P0A6P5). Kind of assay: DRaCALA Kd determination, purified Der. Format: binding, E. coli. Particulars: 2 nM 32P-labeled ligand, read-out: apparent Kd, Der.
Chain of Der (P0A6P5 whole entry): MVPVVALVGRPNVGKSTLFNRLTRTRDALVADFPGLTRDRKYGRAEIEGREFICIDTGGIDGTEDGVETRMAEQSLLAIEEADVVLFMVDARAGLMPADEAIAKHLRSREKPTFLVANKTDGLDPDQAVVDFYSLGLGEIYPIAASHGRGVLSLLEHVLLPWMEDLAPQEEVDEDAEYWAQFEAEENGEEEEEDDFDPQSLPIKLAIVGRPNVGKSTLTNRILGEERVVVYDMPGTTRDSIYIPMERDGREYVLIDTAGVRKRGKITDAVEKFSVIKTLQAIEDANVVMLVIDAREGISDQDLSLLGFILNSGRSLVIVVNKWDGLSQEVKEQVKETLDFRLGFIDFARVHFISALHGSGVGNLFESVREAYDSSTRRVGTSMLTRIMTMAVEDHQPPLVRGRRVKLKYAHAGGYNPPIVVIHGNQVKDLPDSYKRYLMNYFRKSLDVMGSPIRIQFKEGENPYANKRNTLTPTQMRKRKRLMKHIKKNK
The next assay deals with T1, NudG (Escherichia coli, UniProt P77788).
T1 construct: expressed in transfected cells; host or cells: E. coli ASKA collection strain, IPTG-induced, whole-cell lysate
T1 sequence (P77788 whole entry): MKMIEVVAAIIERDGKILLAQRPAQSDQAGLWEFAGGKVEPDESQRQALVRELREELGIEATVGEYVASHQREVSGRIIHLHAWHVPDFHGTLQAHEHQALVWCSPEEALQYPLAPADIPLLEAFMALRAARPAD
Put plainly: DRaCALA competition assay, lysate with overproduced NudG. Format: binding, E. coli. To be noted: whole-cell lysate, 2 nM hot (p)ppGpp, 100 µM cold competitor. On the procedure: Bacterial cells were collected and frozen at −80°C.

For the next assay, the target named is Gpt (Escherichia coli, UniProt P0A9M5). Put plainly: DRaCALA Kd determination, purified Gpt. Format: binding, E. coli. To be noted: 2 nM 32P-labeled ligand, read-out: apparent Kd, Gpt.
Chain of Gpt (P0A9M5 whole entry): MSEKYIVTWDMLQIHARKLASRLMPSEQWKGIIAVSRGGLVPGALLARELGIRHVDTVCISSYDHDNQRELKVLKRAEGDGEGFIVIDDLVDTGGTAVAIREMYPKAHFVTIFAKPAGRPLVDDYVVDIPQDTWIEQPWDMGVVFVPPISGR
A further assay concerns the target MutT (Escherichia coli, UniProt P08337). Put plainly: In vitro cleavage assay (TLC), MutT. The class given is biochemical, E. coli. To be noted: for cleavage by MutT: purified MutT, buffer B with 10 mM MgCl2, TLC. On the procedure:
The purified His6-MutT and His6-NudG proteins were tested for their relative levels of cleavage of ppGpp compared to those seen with their native substrates. For this, a 1 μM concentration of each protein and a 10 nM concentration of [α-^32P]ppGpp were used together with 100 μM concentrations of cold competitors [ppGpp, GTP, ATP, 8-oxo-(d)GTP, 2-hydroxyl-(d)ATP] or 50 mM EDTA in buffer B. The samples were incubated at 30°C for 10 min and for 1 h before the reactions were stopped by adding 50 mM EDTA. The cleavage products were resolved by TLC as described above. The purified His6-NadR and His6-TrmE proteins were tested for their cleavage of both GTP and ppGpp. For cleavage of GTP, 10 μM concentrations of His6-MBP, His6-TrmE, and 20 μM His6-NadR proteins were used with 2 nM [α-^32P]GTP and 100 μM cold GTP in buffer B. For cleavage of ppGpp, 10 μM concentrations of His6-TrmE, His6-MBP, and His6-NadR proteins were used with 10 nM [α-^32P]ppGpp in buffer B. Of note, for His6-TrmE, another reaction was also performed in buffer B supplemented with 100 mM KCl. The reactions were performed at RT for 10 min and were stopped by adding 17% formic acid. The cleavage products were resolved by TLC as described above.
A 20 μM concentration of each of purified proteins MutT, NudG, NadR, TrmE, and MBP (as a negative control) was incubated with 100 μM ppGpp in buffer B (containing 40 mM Tris [pH 7.5], 100 mM NaCl, and 10 mM MgCl2) for 20 min at room temperature. Samples were snap-frozen on dry ice and analyzed with UPLC-MS afterward. All samples and buffers were stored at −80°C, thawed on ice, and kept at 4°C during analysis. For the analysis, a UPLC-quadrupole time of flight (UPLC-qTOF) method (Waters) was used. Analysis conditions were as follows: column, zic-HILIC (Merck Millipore) (150 by 2.1 mm, […], gradient elution, flow rate set to 0.3 ml/min); mobile phase A, 10 mM ammonium acetate (pH 5); mobile phase B, 90% acetonitrile with 10 mM ammonium acetate (pH 5). The gradient was set up as follows: min 0 to 2, 80% B; min 2 to 16, 80% B to 50% B; hold until min 20; injection volume, 4 µl. The detection conditions were as follows: photodiode array detector (PDA), […] (evaluated at 260 nm); MS, ionization; electrospray ionization (ESI+), scan, 200 to 800 m/z with lock mass correction. Analytes were identified by their accurate mass and retention time data for a known standard dissolved in used buffer (for the chemicals of the same nominal masses). These standards were either synthesized and their structures confirmed by nuclear magnetic resonance (NMR) (for ppGp, pGpp, and pGp) or purchased (ppGpp was purchased from Jena Biocsience and GTP from Sigma-Aldrich).

The target in another assay is YgdH (Escherichia coli, UniProt P0ADR8). Put plainly: DRaCALA binding and Kd determination, purified YgdH. On the set-up: species or system E. coli. To be noted: DRaCALA.
Chain of YgdH (P0ADR8 whole entry): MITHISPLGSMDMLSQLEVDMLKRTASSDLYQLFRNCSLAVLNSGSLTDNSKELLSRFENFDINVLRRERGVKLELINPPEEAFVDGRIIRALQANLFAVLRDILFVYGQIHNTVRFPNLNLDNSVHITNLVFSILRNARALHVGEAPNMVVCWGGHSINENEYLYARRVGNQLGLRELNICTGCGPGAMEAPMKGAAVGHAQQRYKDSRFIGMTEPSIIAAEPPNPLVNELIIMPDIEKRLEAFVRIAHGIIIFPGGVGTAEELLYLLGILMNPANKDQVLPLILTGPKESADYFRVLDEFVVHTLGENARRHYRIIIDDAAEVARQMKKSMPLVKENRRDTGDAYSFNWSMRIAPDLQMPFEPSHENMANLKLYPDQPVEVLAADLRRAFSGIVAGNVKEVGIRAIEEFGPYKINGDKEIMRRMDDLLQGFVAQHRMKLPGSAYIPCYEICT
The mark [3] stands for this setting: in the presence of EDTA (without Mg2+), read-out: Kd, YgdH + EDTA (converted).
Setting [4] is: with 1.5 mM Mg2+, read-out: apparent Kd, YgdH + 1.5 mM Mg2+.

Each structure is given as a SMILES string. Values joined by “and” are separate entries in the source; they are usually repeats but may differ in a detail not shown here. Equal values may be shown once. “Also recorded” adds a separate entry of the source. Read-outs that look alike come from different tables or passages of the source.

Results on two compounds are retold here after paper PMC5845004, “Novel (p)ppGpp Binding and Metabolizing Proteins of Escherichia coli” (mBio, 2018).

Chain of MutT (P08337 whole entry): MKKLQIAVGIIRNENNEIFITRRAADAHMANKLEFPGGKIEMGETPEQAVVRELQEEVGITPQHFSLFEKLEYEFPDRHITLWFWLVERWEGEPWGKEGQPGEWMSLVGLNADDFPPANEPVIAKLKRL
Chain of HypB (P0AAN3 whole entry): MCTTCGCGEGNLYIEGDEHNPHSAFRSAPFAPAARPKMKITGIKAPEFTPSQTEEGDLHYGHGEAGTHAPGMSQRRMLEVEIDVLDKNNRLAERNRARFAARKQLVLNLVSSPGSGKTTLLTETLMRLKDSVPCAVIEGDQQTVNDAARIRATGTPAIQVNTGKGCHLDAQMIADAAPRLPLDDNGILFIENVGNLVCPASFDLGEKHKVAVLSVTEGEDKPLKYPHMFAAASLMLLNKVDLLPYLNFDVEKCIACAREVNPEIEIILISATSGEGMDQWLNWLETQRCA
Experimental for Der: (§2) For Kd measurements by DRaCALA, 2-fold serial dilutions from the highest possible concentrations of each purified protein were prepared in binding buffer B, and approximately 2 nM concentrations of α-^32P-labeled ppGpp, pppGpp, GTP, and GDP were added. The mixtures were incubated for 5 min at RT before spotting of 2 µl of the reaction mixtures onto nitrocellulose membranes. […] For competition assays, purified proteins at the specified concentrations were incubated with 2 nM [α-^32P]ppGpp or [α-^32P]pppGpp in the presence of 100 μM competitor nucleotides in binding buffer B. The reaction mixtures were incubated for 5 min at RT, 2 µl was spotted onto nitrocellulose membranes, and the values corresponding to the bound fractions were determined. EDTA was added at excess concentrations as specified for each case.
Experimental for Gpt: as §1
Experimental for Hpt: For Kd measurements by DRaCALA, 2-fold serial dilutions from the highest possible concentrations of each purified protein were prepared in binding buffer B, and approximately 2 nM concentrations of α-^32P-labeled ppGpp, pppGpp, GTP, and GDP were added. The mixtures were incubated for 5 min at RT before spotting of 2 µl of the reaction mixtures onto nitrocellulose membranes. The fractions of bound ligand and the apparent Kd values were calculated as previously described ([37]). For competition assays, purified proteins at the specified concentrations were incubated with 2 nM [α-^32P]ppGpp or [α-^32P]pppGpp in the presence of 100 μM competitor nucleotides in binding buffer B. The reaction mixtures were incubated for 5 min at RT, 2 µl was spotted onto nitrocellulose membranes, and the values corresponding to the bound fractions were determined. EDTA was added at excess concentrations as specified for each case.
Experimental for HypB: as §2
Experimental for YgdH: as §2

With `Nc1nc2c(ncn2[C@@H]2O[C@H](COP(=O)(O)OP(=O)(O)O)[C@@H](OP(=O)(O)OP(=O)(O)O)[C@H]2O)c(=O)[nH]1` [ppGpp, guanosine tetraphosphate], the Kd on HypB was 12.4 ± 3 µM; at Era [1] it was 950 ± 60 nM; on Era [2], 4.3 ± 0.6 µM; on RsgA, 1.69 ± 0.13 µM; on Hpt, 6.1 ± 0.9 µM; on Gmk it was 6.02 µM. Also, the Kd at HflX is 0.87 ± 0.15 µM; at Der it was 1800 nM and 1770 nM; at Gpt, 5.2 ± 0.9 µM; on YgdH (setting [3]), 4 ± 0.5 µM; on YgdH (setting [4]), 24.4 ± 4.7 µM. The “competition for NudG-bound (p)ppGpp” value at NudG was “could outcompete the bound, radiolabeled (p)ppGpp”. Also, the “inhibition of [α-32P]ppGpp cleavage by MutT” value on MutT (1 µM MutT, 10 nM hot ppGpp, 100 µM competitor, 30°C, up to 1 h) was “very limited inhibitory effects”. Besides, the “cleavage by MutT” value on MutT is “degraded into smaller products; also recorded: cleaved most ppGpp”.

As for `Nc1nc2c(ncn2[C@@H]2O[C@H](COP(=O)(O)OP(=O)(O)OP(=O)(O)O)[C@@H](OP(=O)(O)OP(=O)(O)O)[C@H]2O)c(=O)[nH]1` [pppGpp, guanosine pentaphosphate], the Kd at HypB is 14.8 ± 5.1 µM; at Era [1], 3850 nM; at Era [2], 21.4 µM; at RsgA, 10.3 µM; on Hpt, 6.2 ± 0.8 µM; on Gmk it was 4.01 µM. Further, the Kd was 13.6 µM on HflX; 6900 ± 2900 nM at Der; 6.7 ± 0.9 µM at Gpt; 1.6 µM and 1.59 µM on YgdH (setting [3]); 37.2 ± 6.5 µM at YgdH (setting [4]). Further, at NudG, the “competition for NudG-bound (p)ppGpp” value was “could outcompete the bound, radiolabeled (p)ppGpp”. For the same compound, at MutT, the “cleavage by MutT” value is on record as “degraded into smaller products”.
